Reference: article PMC8795568 (Proceedings of the National Academy of Sciences of the …, 2022)

Assays:
[1] = tested on: midline nuclear protein in testis (NUT) carcinoma; conditions: phase IIb trial, closed; ref NCT02296476; cited from earlier work
[2] = clinical; cited from earlier work
[3] = tested on: Panc1 cells; experiment: Cell growth assay; type: cell-based, human; conditions: Panc1, 1 μM each drug, until DMSO cells reached 100% confluence
[4] = tested on: several solid tumors; conditions: trial terminated; cited from earlier work
[5] = tested on: NUT midline carcinoma and other solid cancers; conditions: patients, cited from earlier work

For `Cc1sc2c(c1C)C(c1ccc(Cl)cc1)=N[C@@H](CC(=O)Nc1ccc(O)cc1)c1nnc(C)n1-2` [MK-8628], the clinical activity [1] is given as “lack of detectable clinical activity”.
In the case of `COc1cc(OC)c2c(=O)[nH]c(-c3cc(C)c(OCCO)c(C)c3)nc2c1` [RVX000222], the safety [2] is given as “improved safety threshold”.
In the case of `COc1ccc(CCc2nc3cc(-c4c(C)noc4C)ccc3n2C[C@H](C)N2CCOCC2)cc1Cl` [SGC-CBP30], the “cell growth (confluence)” value [3] is reported as “marginal effect on cell growth”.
For `CNC(=O)N1N=C(c2ccc(N3CCN(C)CC3)cc2)c2cc(OC)c(OC)cc2C[C@@H]1C` [BAY1238097], the dose-limiting toxicities [4] is listed as “high rates of dose-limiting toxicities at subtherapeutic doses”.
In the case of `CCNC(=O)C[C@@H]1N=C(c2ccc(Cl)cc2)c2cc(OC)ccc2-n2c(C)nnc21` [GSK525762], the rate of nausea ([5]; adverse effects) is listed as 40%, the rate of thrombocytopenia ([5]; adverse effects) is listed as 44% and the partial responses [5] is listed as 2 out of 10.
